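96-well plates; 48 h exposure; 5 concentrations. Endpoints by linear interpolation between flanking doses. Not reached: highest tested concentration assigned. Here, GI50 denotes the concentration required for 50% inhibition of growth.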 Activity calls are given as the source filed them. No stated cut-off is given here; in the data, active = GI50 up to about 1.1 µM and inactive = higher.
Assays:
Assay in all cases: growth of human tumour cells (NCI), 48 h
LXFL 529 = tested on: LXFL 529
M19-MEL = tested on: M19-MEL
HOP-18 = tested on: HOP-18
XF498 = tested on: XF498
SNB-78 = tested on: SNB-78
DMS-114 = tested on: DMS-114
KM-20L2 = tested on: KM-20L2
MDA-N = tested on: MDA-N

With `Cc1cc(NS(=O)(=O)c2ccc(NC(=O)c3ccc(Cl)c4c(Nc5ccc(S(=O)(=O)Nc6cc(C)on6)cc5)c5ccccc5nc34)cc2)no1` the GI50 (LXFL 529) was 21.6 µM (inactive), the GI50 (M19-MEL) was 22.9 µM (inactive) and the GI50 (HOP-18) was 15.8 µM (inactive). The GI50 (XF498) was 31.8 µM (inactive), the GI50 (SNB-78) was 36.1 µM (inactive) and the GI50 (DMS-114) was 18.5 µM (inactive). The GI50 (KM-20L2) was 21.5 µM (inactive).
With `O=C1O[C@H](C(Cl)(Cl)Cl)N2CCCC12` (some centres undefined) the GI50 (LXFL 529) was > 100 µM (inactive), the GI50 (M19-MEL) was > 100 µM (inactive) and the GI50 (HOP-18) was 18.5 µM (inactive). The GI50 (XF498) was > 100 µM (inactive), the GI50 (DMS-114) was > 100 µM (inactive) and the GI50 (KM-20L2) was > 100 µM (inactive).
In the case of `Ic1cccc(/C=C/CN2CCN(CCOC(c3ccccc3)c3ccccc3)CC2)c1`, the GI50 (MDA-N) is reported as 17.9 µM (inactive).
With `NNC(=O)c1ccccc1Nc1ccccc1C(=O)NN` the GI50 (MDA-N) was > 100 µM (inactive).
`Cc1cc(C)c(N[S+]([O-])c2cccc(Cl)c2)c(C)c1` (centres undefined) was tested, and the GI50 (MDA-N) was > 100 µM (inactive).
In the case of `S=C(S)NCCN1CCNCC1`, the GI50 (MDA-N) is reported as 37.2 µM (inactive).
In the case of `CCN(CC)c1ccc(C2Nc3ccc4ccccc4c3C3=C2C(=O)CCC3)cc1` (centres undefined), the GI50 (MDA-N) is reported as > 100 µM (inactive).
For `COc1cc2c3c(cc(Cl)nc3c1OC)C(O)(CC(C)=O)C(=O)N2` (centres undefined), the GI50 (MDA-N) was 17.3 µM (inactive).
For `CC1=CC(=O)/C(=C/NC(=S)NCCc2ccccc2)C(=O)O1`, the GI50 (MDA-N) was > 100 µM (inactive).
With `C[N+](C)(C)CC(=O)N/N=C\c1c(O)ccc2ccccc12` the GI50 (MDA-N) was 42.9 µM (inactive).
In the case of `CCOc1ccc(/N=N/c2ccc3oc(=O)c(C(=O)Nc4ccc(OC)cc4)cc3c2)cc1`, the GI50 (LXFL 529) is reported as 6.82 µM (inactive), the GI50 (M19-MEL) is reported as 26.4 µM (inactive) and the GI50 (SNB-78) is reported as 21.3 µM (inactive). For the same compound, the GI50 (KM-20L2) was 32.2 µM (inactive).
For `CNC(=S)NN=C1NCCCCN1`, the GI50 (MDA-N) was > 100 µM (inactive).
With `Cc1cc2c(cc1-c1cc3c(cc1C)C(C(C)C)=C(O)C(=O)/C3=C\Nc1c3ccccc3nc3ccccc13)/C(=C/Nc1c3ccccc3nc3ccccc13)C(=O)C(O)=C2C(C)C` the GI50 (MDA-N) was 4.06 µM (inactive).
For `CC1(C)OC2C(O)C(CO)OC2(C(F)F)O1` (centres undefined), the GI50 (MDA-N) was > 100 µM (inactive).
With `CC(=O)c1c(O)c(C)c(O)c(Cc2c(O)c3c(c(C(=O)/C=C/c4ccccc4)c2O)OC(C)(C)C=C3)c1O` [ROTTLERIN] the GI50 (MDA-N) was 3.14 µM (inactive).
`Nn1c(Cc2ccccc2)n[nH]c1=O` was tested, and the GI50 (MDA-N) was > 100 µM (inactive).
In the case of `Cl.O=C(O)c1cccnc1`, the GI50 (MDA-N) is reported as > 100 µM (inactive).
In the case of `CC(C)(C)c1cc(C(C)(C)C)c(SS(=O)(=O)O)c(O)c1O`, the GI50 (MDA-N) is reported as 30.1 µM (inactive).
In the case of `O=C(C(Cl)=C(N1CCCCC1)N1CCCCC1)C(Cl)Cl`, the GI50 (MDA-N) is reported as > 100 µM (inactive).
In the case of `C[C@H](CCC(=O)O)[C@H]1CC[C@H]2[C@@H]3[C@H](O)C[C@@H]4C[C@H](O)CC[C@]4(C)[C@H]3CC[C@]12C` [CHENODIOL], the GI50 (MDA-N) is reported as 37.7 µM (inactive).
For `COc1ccc(C(C)c2cc3c(cc2OC)OCO3)cc1` (centres undefined), the GI50 (LXFL 529) was 0.125 µM (active), the GI50 (M19-MEL) was 0.395 µM (active) and the GI50 (HOP-18) was 0.371 µM (active). For the same compound, the GI50 (SNB-78) was 0.612 µM (active), the GI50 (MDA-N) was 0.019 µM (active) and the GI50 (DMS-114) was 0.339 µM (active). The GI50 (KM-20L2) was 0.225 µM (active).
In the case of `COP(=O)(OC)/C(=C/c1c[nH]c2ccccc12)C(=O)O`, the GI50 (MDA-N) is reported as > 100 µM (inactive).
For `C1OCC2S[C@@H]3COCO[C@@H]3C2O1` (some centres undefined), the GI50 (LXFL 529) was > 100 µM (inactive), the GI50 (M19-MEL) was > 100 µM (inactive) and the GI50 (XF498) was > 100 µM (inactive). For the same compound, the GI50 (SNB-78) was > 100 µM (inactive), the GI50 (DMS-114) was > 100 µM (inactive) and the GI50 (KM-20L2) was > 100 µM (inactive).
With `COC(=O)/C(C#N)=C1\NN=NN1CCCN1CCOCC1` the GI50 (LXFL 529) was > 100 µM (inactive), the GI50 (M19-MEL) was > 100 µM (inactive) and the GI50 (HOP-18) was > 100 µM (inactive). The GI50 (SNB-78) was > 100 µM (inactive) and the GI50 (DMS-114) was > 100 µM (inactive).
In the case of `CC(=O)Nc1ccc(C(=O)NN2C(=O)C(Cl)C2c2ccc(Cl)cc2)cc1` (centres undefined), the GI50 (LXFL 529) is reported as 50.6 µM (inactive), the GI50 (M19-MEL) is reported as > 100 µM (inactive) and the GI50 (HOP-18) is reported as 64.4 µM (inactive).
With `O=C(c1ccccc1)c1ccc2[nH]c(-c3c(Cl)c(Cl)c(Cl)c(Cl)c3-c3nnc(-c4ccccc4)o3)nc2c1` the GI50 (MDA-N) was 3.45 µM (inactive).
For `CCN(CC)CC1CN=C(N)O1` (centres undefined), the GI50 (MDA-N) was > 100 µM (inactive).
For `CSc1nc(-c2ccccc2)nc(C(C#N)C#N)n1`, the GI50 (MDA-N) was > 100 µM (inactive).
`Cc1cc(C)nc(NC(=S)Nc2ccccc2Cl)c1` was tested, and the GI50 (MDA-N) was > 100 µM (inactive).
`O=C(Nc1sccc1S(=O)(=O)c1ccc(Cl)cc1)c1ccc(Cl)cc1` was tested, and the GI50 (MDA-N) was > 100 µM (inactive).
With `Cc1cc(C)c2c(c1)C1=NCCN1C2(O)c1ccc(Cl)cc1` (centres undefined) the GI50 (MDA-N) was 15.1 µM (inactive).
`N#Cc1ccnc(C(=O)N2CCCC2C(=O)O)c1` (centres undefined) was tested, and the GI50 (MDA-N) was > 100 µM (inactive).
`Cc1ccc(Nc2nc(C)c(C(=O)CC(=O)C(=O)Nc3ccc(Cl)cc3)s2)cc1` was tested, and the GI50 (MDA-N) was > 100 µM (inactive).
In the case of `COc1nc(NC2OCC(OC(C)=O)C(OC(C)=O)C2OC(C)=O)c(/N=C\C=N\c2c(NC3OCC(OC(C)=O)C(OC(C)=O)C3OC(C)=O)nc(OC)n(C)c2=O)c(=O)n1C` (centres undefined), the GI50 (LXFL 529) is reported as > 100 µM (inactive), the GI50 (M19-MEL) is reported as > 100 µM (inactive) and the GI50 (HOP-18) is reported as > 100 µM (inactive). The GI50 (XF498) was 17.9 µM (inactive), the GI50 (SNB-78) was > 100 µM (inactive) and the GI50 (KM-20L2) was > 100 µM (inactive).
With `CC1=C2O[C@]3(O)C=C2C(=C(O)C1=O)[C@@H]1O[C@H](CC[C@H](C)/C=C(\C)C[C@@H](C)C[C@@H]3C)[C@H](C)[C@H](O)[C@H]1C` [KENDOMYCIN] the GI50 (MDA-N) was 0.166 µM (active).
`CC(C)=CCC[C@]1(C)C=Cc2c(O)c3c(c(CC=C(C)C)c2O1)O[C@]12C(=C[C@@H]4CC1C(C)(C)O[C@@]2(C/C=C(/C)C(=O)O)C4=O)C3=O` was tested, and the GI50 (MDA-N) was 0.47 µM (active).
For `CC(C)=CCCc1c(C)ccc2c1C(=O)C(=O)C(C(C)C)=C2`, the GI50 (LXFL 529) was 3.62 µM (inactive), the GI50 (M19-MEL) was 3.87 µM (inactive) and the GI50 (HOP-18) was 4.02 µM (inactive). The GI50 (XF498) was 3.77 µM (inactive), the GI50 (DMS-114) was 4.2 µM (inactive) and the GI50 (KM-20L2) was > 22 µM (inactive).
In the case of `CCCCCC/C=C\CCCCCCCCCC1=CC(=O)C=C(OC)C1=O` [IRISQUINONE A], the GI50 (MDA-N) is reported as 6.5 µM (inactive).
With `NC(Cc1nnn[nH]1)C(=O)O` (centres undefined) the GI50 (MDA-N) was > 100 µM (inactive).
`OC1C2[C@@H](O)CCCN2C[C@@H](O)[C@H]1O` (some centres undefined) was tested, and the GI50 (MDA-N) was > 100 µM (inactive).
With `Cc1nc2c(o1)C(=O)c1ccccc1/C2=N/c1ccc(N2CCOCC2)cc1` the GI50 (MDA-N) was 1.93 µM (inactive).
`C[C@@]1(c2ccccc2)O[C@@H]2C[C@H]3[C@@H]4CCC5=CC(=O)C=C[C@]5(C)[C@@]4(F)[C@@H](O)C[C@]3(C)[C@]2(C(=O)CO)O1` [AMCINAFIDE] was tested, and the GI50 (MDA-N) was 17 µM (inactive).
`Cc1[nH]c(/C=C2\C(=O)Nc3ccccc32)c(C)c1CCC(=O)O` [ORANTINIB] was tested, and the GI50 (MDA-N) was 27.2 µM (inactive).
For `CC(=O)/C=C/c1ccc(C)cc1`, the GI50 (LXFL 529) was > 100 µM (inactive), the GI50 (M19-MEL) was > 100 µM (inactive) and the GI50 (HOP-18) was > 100 µM (inactive). For the same compound, the GI50 (SNB-78) was > 100 µM (inactive), the GI50 (DMS-114) was > 100 µM (inactive) and the GI50 (KM-20L2) was > 100 µM (inactive).
`N=C(N)NC(=N)Nc1ccc(S(N)(=O)=O)cc1` was tested, and the GI50 (MDA-N) was > 100 µM (inactive).
With `COc1ccc2nc3cc([N+](=O)[O-])ccc3c(NNc3ccccc3)c2c1` the GI50 (MDA-N) was 29.5 µM (inactive).
For `Cc1ccc(C2(c3ccc(F)cc3)OC(=O)c3ccccc32)c(O)c1` (centres undefined), the GI50 (MDA-N) was 12 µM (inactive).
With `CCOC(=O)c1ccc(-c2cccs2)[nH]1` the GI50 (MDA-N) was 66.8 µM (inactive).
`CCOC(=O)c1cc(C2=C(S)N(CC(C)CC)CC2)c(C(=O)CC)[nH]1` (centres undefined) was tested, and the GI50 (MDA-N) was 14.3 µM (inactive).
For `CC(=O)Nc1ccc(C(O)/C(=N/N)c2nc3ccc(Cl)cc3nc2O)cc1` (centres undefined), the GI50 (MDA-N) was > 100 µM (inactive).
For `CC(=O)NC1(C)CCC(C(C)(C)NC(C)=O)CC1` (centres undefined), the GI50 (MDA-N) was > 100 µM (inactive).
`C=C1C(=O)O[C@@H]2C[C@@H]3[C@]4(CC[C@]5(C)[C@@H]([C@H](C)CC/C=C(\C)C=O)CC[C@@]35C)C[C@]4(CCC(=O)OC)[C@H]12` was tested, and the GI50 (MDA-N) was 1.61 µM (inactive).
In the case of `COc1cc(OC2OC(COC(=O)c3cc(O)c(O)c(O)c3)C(O)C(O)C2O)ccc1O` (centres undefined), the GI50 (MDA-N) is reported as 30.5 µM (inactive).
